# According to patent US20160158200A1, “Combinations of Hepatitis C Virus Inhibitors” (priority 2013, published 2016):
# Test system: HCV genotype-1a variant with glutamine 30 changed to glutamate in the NS5A protein
# Type: cell-based
# Conditions: test compound titrated with BMS-790052 fixed at 200 nM; genotype 1a Q30E replicon
# In short: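 Synergy was assessed by combining several fixed amounts of an NS5A-targeting compound with a titration of the second compound of interest.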
row,SMILES,Fold-Synergistic 1a (Q30E)
1,"CC(C)[C@H](NC(=O)C(C)(C)C(O)C1CC(F)(F)C1)c1nc(-c2ccc(-c3ccc(-c4c[nH]c([C@@H](NC(=O)C(C)(C)C(O)C5CC(F)(F)C5)C(C)C)n4)cc3)cc2)c[nH]1 (single isomer, unassigned) [Compound N-145A]",>100 fold
2,CC(C)[C@H](NC(=O)c1cccc(C(F)(F)F)c1)c1ncc(-c2ccc(-c3ccc(-c4cnc([C@@H](NC(=O)c5cccc(C(F)(F)F)c5)C(C)C)[nH]4)cc3)cc2)[nH]1 [Compound S-79],>100 fold
3,CC(C)[C@H](NC(=O)C(=O)C1(C)CCCC1)c1ncc(-c2ccc(-c3ccc(-c4cnc([C@@H](NC(=O)C(=O)C5(C)CCCC5)C(C)C)[nH]4)cc3)cc2)[nH]1 [Compound P-114],>100 fold
4,CC(C)(C)C(=O)N[C@H](c1nc(-c2ccc(-c3ccc(-c4c[nH]c([C@@H](NC(=O)C(C)(C)C)C(C)(C)C)n4)c(F)c3)cc2)c[nH]1)C(C)(C)C.O=C(O)C(F)(F)F [Compound N-93],>100 fold
5,CC(C)(C)[C@H](NC(=O)[C@@H]1C[C@@H]2CC(F)(F)C[C@@H]2C1)c1nc(-c2ccc(-c3ccc(-c4c[nH]c([C@@H](NC(=O)[C@@H]5C[C@@H]6CC(F)(F)C[C@@H]6C5)C(C)(C)C)n4)cc3)cc2)c[nH]1 [Compound P-43],>100 fold
6,CC(C)(C)C(NC(=O)C1(O)CCC1)c1nc(-c2ccc(-c3ccc(-c4c[nH]c(C(NC(=O)C5(O)CCC5)C(C)(C)C)n4)cc3)cc2)c[nH]1 [Compound L-71],>100 fold
7,"CC(C)(C(=O)N[C@H](c1nc(-c2ccc(-c3ccc(-c4c[nH]c([C@@H](NC(=O)C(C)(C)C(O)C5CC(F)(F)C5)C(C)(C)C)n4)cc3)cc2)c[nH]1)C(C)(C)C)C(O)C1CC(F)(F)C1 (single isomer, unassigned) [Compound N-144A]",>100 fold
8,CC1(C)CC(C(=O)NC(c2nc(-c3ccc(-c4ccc(-c5c[nH]c(C(NC(=O)C6CC(C)(C)C6)C(C)(C)C)n5)cc4)cc3)c[nH]2)C(C)(C)C)C1 [Compound L-53],>100 fold
9,"CC(O)(CF)C(=O)N[C@H](c1nc(-c2ccc(-c3ccc(-c4c[nH]c([C@@H](NC(=O)C(C)(O)CF)C(C)(C)C)n4)cc3)cc2)c[nH]1)C(C)(C)C (single isomer, unassigned) [Compound N-139C]",>100 fold
10,CC(C)(C)[C@H](NC(=O)c1ccc(F)c(F)c1)c1nc(-c2ccc(-c3ccc(-c4c[nH]c([C@@H](NC(=O)c5ccc(F)c(F)c5)C(C)(C)C)n4)cc3)cc2)c[nH]1 [Compound N-51],>100 fold
11,C=C1C[C@@H](C(=O)N[C@H](c2nc(-c3ccc(-c4ccc(-c5c[nH]c([C@@H](NC(=O)[C@@H]6CC(=C)CN6C(=O)OC(C)(C)C)C(C)C)n5)cc4)cc3)c[nH]2)C(C)C)N(C(=O)OC(C)(C)C)C1 [Compound W-89],>100 fold
12,Cc1ccoc1C(=O)N[C@H](c1ncc(-c2ccc(-c3ccc(-c4cnc([C@@H](NC(=O)c5occc5C)C(C)C)[nH]4)cc3)cc2)[nH]1)C(C)C [Compound S-90],>100 fold
13,CC(C)(C)[C@H](NC(=O)C1(C(F)(F)F)CC1)c1nc(-c2ccc(-c3ccc(-c4c[nH]c([C@@H](NC(=O)C5(C(F)(F)F)CC5)C(C)(C)C)n4)cc3)cc2)c[nH]1 [Compound P-30],>100 fold
14,CC(C)[C@H](NC(=O)[C@@H](C)c1ccccc1)c1ncc(-c2ccc(-c3ccc(-c4cnc([C@@H](NC(=O)[C@@H](C)c5ccccc5)C(C)C)[nH]4)cc3)cc2)[nH]1 [Compound P-62],>100 fold
15,CC(C)(C)[C@H](NC(=O)C1CCC(F)(F)CC1)c1ncc(-c2ccc([C@@H]3C[C@H]3c3ccc(-c4cnc([C@@H](NC(=O)C5CCC(F)(F)CC5)C(C)(C)C)[nH]4)cc3)cc2)[nH]1 [Compound B-190],>100 fold
16,CC(C)(C)C(=O)N[C@H](c1ncc(-c2ccc(-c3cc4ccc(-c5cnc([C@@H](NC(=O)C(C)(C)C)C(C)(C)C)[nH]5)cc4o3)cc2)[nH]1)C(C)(C)C.O=C(O)C(F)(F)F [Compound B62],>10 fold
17,CC(C)(OCCF)C(=O)N[C@H](c1nc(-c2ccc(-c3ccc(-c4c[nH]c([C@@H](NC(=O)C(C)(C)OCCF)C(C)(C)C)n4)cc3)cc2)c[nH]1)C(C)(C)C [Compound Y-3],>100 fold
18,CC1(C(=O)N[C@H](c2nc(-c3ccc(-c4ccc(-c5c[nH]c([C@@H](NC(=O)C6(C)CCC(F)(F)CC6)C(C)(C)C)n5)cc4)cc3)c[nH]2)C(C)(C)C)CCC(F)(F)CC1 [Compound P-20],>100 fold
19,CC(C)[C@H](NC(=O)Cc1cccc2ccccc12)c1ncc(-c2ccc(-c3ccc(-c4cnc([C@@H](NC(=O)Cc5cccc6ccccc56)C(C)C)[nH]4)cc3)cc2)[nH]1 [Compound S-9],>10 fold
20,CC(C)COC(=O)N[C@@H](C(=O)N[C@H](c1ncc(-c2ccc(-c3ccc(-c4cnc([C@@H](NC(=O)[C@H](NC(=O)OCC(C)C)C(C)C)C(C)C)[nH]4)cc3)cc2)[nH]1)C(C)C)C(C)C [Compound S-246],>100 fold

row,SMILES,Fold-Synergistic 1a (Q30E)
1,CC(C)[C@H](NC(=O)c1cccc2ccccc12)c1ncc(-c2ccc(-c3ccc(-c4cnc([C@@H](NC(=O)c5cccc6ccccc56)C(C)C)[nH]4)cc3)cc2)[nH]1 [Compound S-86],>100 fold
2,CC(C)(C)[C@H](NC(=O)C(C)(C)C1(O)CCC(F)(F)CC1)c1nc(-c2ccc(-c3ccc(-c4c[nH]c([C@@H](NC(=O)C(C)(C)C5(O)CCC(F)(F)CC5)C(C)(C)C)n4)cc3)cc2)c[nH]1 [Compound P-149],>100 fold
3,"CC1(C(=O)N[C@H](c2nc(-c3ccc(-c4ccc(-c5c[nH]c([C@@H](NC(=O)C6(C)CCCCC6O)C(C)(C)C)n5)cc4)cc3)c[nH]2)C(C)(C)C)CCCCC1O (single isomer, unassigned) [Compound Y-94]",>100 fold
4,COC(=O)N(C)[C@H](C(=O)N[C@H](c1ncc(-c2ccc(-c3ccc(-c4cnc([C@@H](NC(=O)[C@H](C(C)C)N(C)C(=O)OC)C(C)C)[nH]4)cc3)cc2)[nH]1)C(C)C)C(C)C [Compound P-107],>100 fold
5,CCN(CC)C(=O)C(=O)N[C@H](c1nc(-c2ccc(-c3ccc(-c4c[nH]c([C@@H](NC(=O)C(=O)N(CC)CC)C(C)(C)C)n4)cc3)cc2)c[nH]1)C(C)(C)C [Compound W-33],>100 fold
6,O=C(Oc1ccc2ccccc2c1)N1CCC[C@H]1c1ncc(-c2ccc(-c3ccc(-c4cnc([C@@H]5CCCN5C(=O)Oc5ccc6ccccc6c5)[nH]4)cc3)cc2)[nH]1 [Compound S-226],>100 fold
7,O=C([C@@H]1C[C@H]1c1ccccc1)N1CCC[C@H]1c1ncc(-c2ccc(-c3ccc(-c4cnc([C@@H]5CCCN5C(=O)[C@@H]5C[C@H]5c5ccccc5)[nH]4)cc3)cc2)[nH]1 [Compound S-161],>10 fold
8,COc1ccc(C(=O)N[C@H](c2nc(-c3ccc(-c4ccc(-c5c[nH]c([C@@H](NC(=O)c6ccc(OC)cc6)C(C)(C)C)n5)cc4)cc3)c[nH]2)C(C)(C)C)cc1 [Compound N-54],>100 fold
9,COC1(C(=O)N[C@H](c2ncc(-c3ccc(-c4ccc(-c5cnc([C@@H](NC(=O)C6(OC)CCC(F)(F)CC6)C6(C)CC6)[nH]5)cc4)cc3)[nH]2)C2(C)CC2)CCC(F)(F)CC1 [Compound P-132],>100 fold
10,CC(C)(C)C(=O)C(=O)N[C@H](c1nc(-c2ccc(-c3ccc(-c4c[nH]c([C@@H](NC(=O)C(=O)C(C)(C)C)C(C)(C)C)n4)cc3)cc2)c[nH]1)C(C)(C)C [Compound W-238],>100 fold
11,CC1([C@H](NC(=O)C2(CO)CC(F)(F)C2)c2nc(-c3ccc(-c4ccc(-c5c[nH]c([C@@H](NC(=O)C6(CO)CC(F)(F)C6)C6(C)CC6)n5)cc4)cc3)c[nH]2)CC1 [Compound N-155],>100 fold
12,CC(C)(C)[C@H](NC(=O)C(=O)c1ccco1)c1nc(-c2ccc(-c3ccc(-c4c[nH]c([C@@H](NC(=O)C(=O)c5ccco5)C(C)(C)C)n4)cc3)cc2)c[nH]1 [Compound W-20],>100 fold
13,CC(C)[C@H](NC(=O)CCC1CCCC1)c1ncc(-c2ccc(-c3ccc(-c4cnc([C@@H](NC(=O)CCC5CCCC5)C(C)C)[nH]4)cc3)cc2)[nH]1 [Compound S-25],>100 fold
14,CCN(CC(F)(F)F)C(=O)C(=O)NC(c1nc(-c2ccc(-c3ccc(-c4c[nH]c(C(NC(=O)C(=O)N(CC)CC(F)(F)F)C5CC5)n4)cc3)cc2)c[nH]1)C1CC1 [Compound L-35],>100 fold
15,CC(C)(C)OC(=O)NC1(C(=O)N[C@H](c2nc(-c3ccc(-c4ccc(-c5c[nH]c([C@@H](NC(=O)C6(NC(=O)OC(C)(C)C)CCOCC6)C(C)(C)C)n5)cc4)cc3)c[nH]2)C(C)(C)C)CCOCC1 [Compound W-132],>100 fold
16,CCOC(C)(C)C(=O)N[C@H](c1nc(-c2ccc(-c3ccc(-c4c[nH]c([C@@H](NC(=O)C(C)(C)OCC)C(C)(C)C)n4)cc3)cc2)c[nH]1)C(C)(C)C [Compound P-26],>100 fold
17,CC1(C(=O)NC(c2nc(-c3ccc(-c4ccc(-c5c[nH]c(C(NC(=O)C6(C)CCCCC6=O)C(C)(C)C)n5)cc4)cc3)c[nH]2)C(C)(C)C)CCCCC1=O (mixture of isomers) [Compound Y-98],>100 fold
18,CC(OC(=O)NC1(C(=O)NC(c2nc(-c3ccc(-c4ccc(-c5c[nH]c(C(NC(=O)C6(NC(=O)OC(C)C(F)(F)F)CC6)C6(C)CC6)n5)cc4)cc3)c[nH]2)C2(C)CC2)CC1)C(F)(F)F [Compound L-42],>100 fold
19,"CC(C)[C@H](NC(=O)C(C)(C)C)c1nc(-c2ccc(-c3ccc(-c4c[nH]c([C@@H](NC(=O)C(C)(C)C)C(C)C)n4)nc3)cc2)c[nH]1 [Compound N-101, N—((S)-2-methyl-1-(4-(4-(6-(2-((S)-2-methyl-1-pivalamidopropyl)-1H-imidazol-4-yl)pyridin-3-yl)phenyl)-1H-imidazol-2-yl)propyl)pivalamide]",>100 fold
